From patent US20080064722A1, “AGENT FOR PROMOTING INTERFERON-Y PRODUCTION” (KABUSHIKI KAISHA HAYAHIBARA SEIBUTSU KAGAKU KENKYU, priority 2001, published 2008)

Key:
[1] = test system: IFN-γ production by immunocompetent cells (spleen cells); assay: Effect of cyanine dye on IFN-γ production (ex vivo: oral dosing of mice, spleen cells cultured with lipopolysaccharide, ELISA); type: in vivo, BALB/c female mice; conditions: for IFN-γ Production: once a day over three days, spleen cells 1×10^6 cells/ml, 5 μg/ml lipopolysaccharide, 72 hours
Experimental: The following explains the effect of the cyanine dyes on INF-γ production by immunocompetent cells based on ex vivo experiment using mice as an experimental animal.
(§1) Twenty-five of 10-week-old BALB/c female mice were divided into five groups. A powder consisting of one part by weight of “NK-4”, a cyanine dye represented by Chemical Formula 1 produced by Hayashibara Biochemical Laboratories, Inc., Okayama, Japan, and 200 parts by weight of sodium bicarbonate was prepared. Then, the mixture was dissolved in physiological saline to give a concentration of 20 mg/ml. Successively, the solution was diluted to give different concentrations as indicated in Table 1 with 20 mg/ml of sodium bicarbonate aqueous solution for administration to the mice. The dilutions were orally administered to the mice in four groups once a day over three days.
Spleens were respectively extracted from the mice in each group, minced and suspended in a usual manner in the art to give the spleen cell suspension. The cell suspensions were collected and diluted in RPMI medium (pH 7.2), supplemented with 10% (v/v) calf serum […] and containing 10 mM HEPES (N-2-hydroxyethylpiperadine-N′-2-ethanesulfonic acid) and 5 μg/ml lipopolysaccharide, to give a concentration of 1×10^6 cells/ml, and were cultured at 37° C. for 72 hours. IFN-γ was measured by conventional enzyme-linked immunosorbent assay (ELISA). As a control, the mice of the group with no cyanine dye were treated similarly as above. The measured values of IFN-γ were converted into international units (IU) with reference to the standard mouse IFN-γ (Gg02-901-533) obtained form National institute of Health, U.S.A., as an IFN-γ standard.

mice = assay: Observation of the mice administered with the cyanine dye (death, condition, side effects); type: in vivo
Experimental: as §1

LD50 of the cyanine dye = type: in vivo

SMILES | IFN-γ Production ([1]; dose 1 μg/kg body weight) | IFN-γ Production ([1]; dose 10 μg/kg body weight) | IFN-γ Production ([1]; dose 100 μg/kg body weight) | IFN-γ production relative to that of the control group ([1]; dose 1,000 μg/kg body weight, control 0.4 IU/ml) | IFN-γ Production ([1]; dose 1,000 μg/kg body weight) | Serious side effect such as symptom of poisoning (mice; directly applied to living bodies) | Condition of mice (hair complexion, appetite, motility) (mice; mouse, in vivo, po) | Death of mice (mice; oral, 1 to 1,000 μg/kg body weight, once a day over three days) | LD50 (LD50 of the cyanine dye; intraperitoneal administration) | LD50 (LD50 of the cyanine dye; oral administration)
CCN1C=CC(=CC=C(C=Cc2cc[n+](CC)c3ccccc23)c2cc[n+](CC)c3ccccc23)c2ccccc21 [NK-4] | 1.2 IU/ml | 2.2 IU/ml | 2.3 IU/ml | sevenfold | 2.8 IU/ml | did not cause any serious side effect | good conditions of hair complexion, appetite, and motility | did not die |  | 
CCCCCCCN1C(C)=CS\C1=C/C=C(/C=C/c1scc(C)[n+]1CCCCCCC)c1scc(C)[n+]1CCCCCCC [Chemical Formula 2] |  |  |  |  |  |  |  |  | 54 mg/kg body weight | 1.5 g/kg body weight
